Patent US20030157084A1, “Methods for preparing purified prostaglandin E synthase” (priority 2001, published 2003)
Read-outs that look alike come from different tables or passages of the source.

Columns and labels:
A549 cells = experiment: Induction of PGE synthase and cyclooxygenase-2 in A549 cells; assay type: cell-based; details: IL-1β 1 ng/ml
Method: Microsomal fractions of A549 cells cultured with or without IL-1 β 1 ng/ml) for 0, 12, 24, 36 or 72 hours were subjected to SDS-PAGE and Western blot analysis. As positive control, the membrane fraction from bacteria expressing human PGE synthase was included. In all lanes of the gel, 10 μg of total protein was analyzed, except for the human PGE synthase where 2 μg was loaded. The Western blot was then incubated with antipeptide antiserum against PGE synthase. The blot was then stripped and incubated with antiserum against COX-2.
In order to study the possible correlation between the result from the Western blot and PGE synthase activity, the corresponding microsomes were incubated in the presence of PGH2 and reduced glutathione as described above. Briefly, microsomes (0.03 mg/ml) were incubated with PGH2 (11 μM) for 30 seconds at 0° C., followed by extraction and analysis by RP-HPLC. […] In addition, no corresponding activity was detected in the cytosolic fractions.

purified His6-hPGES [1] = target: T1, purified His6-hPGES (Homo sapiens, UniProt O14684); experiment: PGES activity assay: glutathione dependent conversion of PGH2 to PGE2 by purified His6-hPGES; assay type: biochemical; parameters: made in house; host or cells: E. coli BL21(DE3) with pLysSL; details: sulfhydryl compound in place of GSH
T1 sequence (O14684 1-152): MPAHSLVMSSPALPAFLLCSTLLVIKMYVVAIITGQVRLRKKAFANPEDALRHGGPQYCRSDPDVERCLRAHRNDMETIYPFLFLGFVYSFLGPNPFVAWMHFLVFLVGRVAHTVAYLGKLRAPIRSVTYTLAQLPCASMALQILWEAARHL

purified His6-hPGES [2] = target: T1, purified His6-hPGES; experiment: as above; assay type: biochemical; parameters: made in house; host or cells: E. coli BL21(DE3) with pLysSL; details: for Specific activity: at Vmax
Method: PGE synthase activity of the purified polypeptide, i.e., the ability to catalyze the conversion of a substrate of PGES into a 9-keto, 11-alpha-hydroxy form, e.g., PGH2 into PGE2 can be determined as follows. […] The polypeptide suspected of having PGES activity is incubated in a buffer, e.g., a sodium phosphate buffer in the presence of about 1 to 5 mM, preferably, 2.5 mM glutathione (GSH). The reaction is started by the addition of PGH2 at about 5 to 20 μM, and preferably 10 uM, and the reaction mixture is then incubated either at 37° C., at room temperature, or preferably, at 0° C., for about one to ten minutes, and preferably, for about one minute. The reaction can be terminated by the addition of a solution reducing the pH to about 3 or 3.2. This can be achieved by the addition of acetonitrile/HCl (as described in Jakobsson et al. (1999) PNAS 96:7220) or by the addition of FeCl2, citric acid, and/or 11-beta PGE2, as described in the Examples. The formation of PGF2 alpha, PGE2 and PGD2 can be determined by reverse-phase high pressure liquid chromatograph (HPLC) and UV detection at 195 nm. For subjecting the proteins to HPLC, the reaction mixtures can be subjected to solid phase extraction, e.g., using C18 Chomabond columns; the samples eluted with acetone, dried and dissolved in acetonitrile. The samples are then ready for HPLC. More details of these methods are provided in the Examples, as well as in Jakobssen et al., supra, and in published PCT application No. WO 00/28022 by Jakobsson et al.
(§1) PGES activity was assayed in 50 mM sodium phosphate buffer, pH 7.4, in the presence of 2.5 mM reduced glutathione (GSH; obtained from Sigma Chemical Co. (St. Louis, Mo.) and either zero; 0.2; 0.4 or 0.6 mg/ml of purified hPGES. The reaction was started by the addition of 10 μM PGH2, and the samples were incubated for 1 minute at 0° C. until terminated by 20 mM FeCl2, 40 mM citric acid and 2.1 μM 11-β. PGE2, lowering the pH to 3. PGH2 was prepared by brief incubation of arachidonic acid with suspensions of the microsomal fraction of homogenate of the sheep vesicular gland essentially as described in Hamberg et al. (1974) PNAS 71:345 or Hecker et al. (1987) Biochem. Pharmacol. 36:851. L-tryptophan (5 mM) was used as electron donor. Purification was accomplished by straight-phase HPLC using a solvent system of 2.5% 2-propanol-hexane containing 0.002% acetic acid. Solid phase extraction using C18 Chromabond columns was performed immediately. The samples were eluted with acetone, dried and dissolved in acetonitrile (⅓ by vol. in H2O) and the formation of PGE2 was analyzed by reverse-phase HPLC on a C18 (3.9×150 mm, 4 μM particle size) column and UV detection at 195 nm.
(§2) The remaining protein was divided in two parts, one was stored at 4° C. for 5 days, and one was frozen and stored at −20° C. for the same time. The PGES activity in the three samples was compared with that in a membrane fraction without solubilization. PGES activity was determined, as described above, for various amounts of protein. The samples were incubated for 1 min on ice or at 37° C. before stopping the reaction. The activity of the purified proteins was compared with the activity in BL21(DE3) membrane fraction without solubilization.
(§3) All points were made in triplicate. The Michaelis-Menten constants KM and Vmax (maximum velocity) were derived by hyperbolic regression with the computer program GraphPad Prism software 3.0 or 3.02 (GraphPad Software, Inc., San Diego, Calif.).

purified His6-hPGES [3] = target: T1, purified His6-hPGES; experiment: Reduction of 15-hydroperoxy-PGE2 (peroxidase activity) by purified his6-hPGES; assay type: biochemical; parameters: made in house; host or cells: E. coli BL21(DE3) with pLysSL; details: 37 ° C., 0.1 mg/ml enzyme, 0.16 mM 15 hydroperoxy-PGE2
Method: This is presented in a typical chromatogram (FIG. 12B) as compared to the buffer control (FIG. 12C) after 30 seconds of incubation.

purified His6-hPGES [4] = target: T1, purified His6-hPGES; experiment: Glutathione transferase (GST) activity of purified His6-hPGES with CDNB; assay type: biochemical; parameters: made in house; host or cells: E. coli BL21(DE3) with pLysSL; details: pre-incubation with 5 mM N-ethylmaleimid in the absence of GSH for 1 minute
Method: Glutathione transferase (GST) activity (glutathione conjugation) was assayed with the classical model substrate for GSTs, p-chloro-2,4-dinitrobenzene (CDNB). […] Formation of product was detected at 340 nm (molar absorption coefficient for the product, GS-DNB, is 9.6 mM^−1 cm^−1).

purified His6-hPGES [5] = target: T1, purified His6-hPGES; details: 37 ° C., 0.05 mg/ml enzyme, 1 mM GSH, 0.5 mM cumene hydroperoxide
purified His6-hPGES [6] = target: T1, purified His6-hPGES; experiment: Isomerization of PGG2 into 15-hydroperoxy-PGE2 by purified His6-hPGES; assay type: biochemical; parameters: made in house; host or cells: E. coli BL21(DE3) with pLysSL
Method: PGG2 was prepared similarly to PGE2 (described above), omitting the L-tryptophan. The reaction was terminated by lowering the pH to 3 by adding 6 μl HCl (1M). Then, 45 μl acetonitrile was added and centrifugation was performed at 14,000 g, for 1 minute to remove the protein. […] In order to determine the formation of PGE2 and 15-Hydroperoxy PGE2, an aliquot (100 μl) was analyzed by RP-HPLC, combined with UV detection at 195 nm. The products were quantified based on the peak areas from known amounts of injected prostaglandins.

[7] = assay type: physicochemical
Method: Membrane fractions were solubilized in 50 mM sodium phosphate buffer, pH 8.0, 150 mM NaCl, 4% Triton X-100, 10% glycerol and 1 mM GSH and stored at 4° C. Samples were assayed for PGES activity as described above after 0, 3, 6, 24 and 240 h (10 days) at 4° C.
as §2

[8] = Specific activity and kinetic properties of purified His6-hPGES for conversion of PGH2 to PGE2; assay type: biochemical; details: for Specific activity of the purified His6-hPGES: glutathione dependent conversion of PGH2 to PGE2
Method: as §1, §2, §3

[9] = 37° C., steady state, KM values apparent, read-out: KM

In the case of “IL-1β: proinflammatory cytokine interleukin-1β, added to A549 cells at 1 ng/ml”, the “COX-2 and PGE synthase protein expression (Western blot)” value (A549 cells; microsomal fractions, 0-72 hours) is reported as “tandem upregulation of COX-2 and PGE synthase proteins” and the “PGE synthase activity in microsomes” value (A549 cells; up to 72 hours, microsomes 0.03 mg/ml, PGH2 11 μM, 30 seconds at 0° C.) is reported as “increase over time”.

For `O[C@H](CS)[C@H](O)CS` (racemic) [dithiothreitol], the “PGES activity when GSH was substituted by other sulfhydryl compounds” value (“PGES activity when GSH was substituted” below) (purified His6-hPGES [1]) was “no PGES-activity could be detected”.

Molecule `N[C@@H](CCC(=O)N[C@@H](CS)C(=O)NCC(=O)O)C(=O)O` [GSH, reduced glutathione] has a kcat (purified His6-hPGES [2]; 37° C., steady state) of 21 ± 1 s⁻¹ and a Km (purified His6-hPGES [2]; [9]) of 710 ± 200 µM.

For `CCCCC[C@@H](/C=C/[C@H]1[C@H](O)CC(=O)[C@@H]1C/C=C\CCCC(=O)O)OO` [15-hydroperoxy-PGE2, 15-Hydroperoxy PGE2], the “Specific activity (reduction of 15-hydroperoxy-PGE2)” value (purified His6-hPGES [3]) was 0.043 ± 0.019 µmol/min/mg and the “Specific activity (reduction of 15-hydroperoxy-PGE2)” value (purified His6-hPGES [3]; listed as 15-HP PGE2) was “no peroxidase activity towards this compound was detected”.

`CCCCC[C@H](O)/C=C/[C@@H]1[C@@H](C/C=C\CCCC(=O)O)[C@@H]2C[C@H]1OO2` [PGH2, Prostaglandin endoperoxide H2] showed a Vmax (purified His6-hPGES [2]; 0° C., 1 μg/ml purified PGES, 2.5 mM GSH, varying PGH2) of 0.25 ± 0.013 µM/s, a Km (purified His6-hPGES [2]; 0° C., 1 μg/ml purified PGES, 2.5 mM GSH, varying PGH2, read-out: Km for PGH2) of 50 ± 8.9 µM and a Vmax (purified His6-hPGES [2]; 37° C., 1 μg/ml purified PGES, 2.5 mM GSH, varying PGH2) of 1.39 ± 0.16 µM/s. It also gave a Km (purified His6-hPGES [2]; 37° C., 1 μg/ml purified PGES, 2.5 mM GSH, varying PGH2, read-out: Km for PGH2) of 163 ± 42 µM, a kcat (purified His6-hPGES [2]; 37° C., steady state) of 50 ± 6 s⁻¹ and a Km (purified His6-hPGES [2]; [9]) of 160 µM. For the same molecule, the Specific activity (purified His6-hPGES [2]; substrate PGH2, 0 ° C.) was 15 µmol/min/mg and the Specific activity (purified His6-hPGES [2]; substrate PGH2, 37 ° C.) was 170 ± 20 µmol/min/mg.

For `CCN1C(=O)C=CC1=O` [N-ethylmaleimide], the “Reduction of PGES activity” value (purified His6-hPGES [2]; pre-incubation with 5 mM N-ethylmaleimide in the absence of GSH for 1 minute) was about 100% and the “Reduction of GST enzyme activity” value (purified His6-hPGES [4]) was 50%.

In the case of `OCCS` [2-mercaptoethanol], the “PGES activity when GSH was substituted” value (purified His6-hPGES [1]) is reported as “no PGES-activity could be detected”.

In the case of `CC(=O)N[C@@H](CS)C(=O)O` [N-acetylcysteine], the “PGES activity when GSH was substituted” value (purified His6-hPGES [1]) is reported as “no PGES-activity could be detected”.

With cumene hydroperoxide the “Specific activity (GSH-dependent peroxidase)” value (purified His6-hPGES [5]) was 0.17 ± 0.02 µmol/min/mg and the “Specific activity (GSH-dependent peroxidase)” value (purified His6-hPGES [5]; listed as cumene hydroperoxide) was 0.17 µmol/min/mg.

Molecule `CCCCC[C@@H](/C=C/[C@@H]1[C@@H](C/C=C\CCCC(=O)O)[C@@H]2C[C@H]1OO2)OO` [PGG2] has a kcat (purified His6-hPGES [6]; 37° C., steady state, PGG2 as substrate) of 75 ± 4 s⁻¹, a Km (purified His6-hPGES [6]; 37° C., steady state, PGG2 as substrate, apparent) of 160 ± 30 µM and a Specific activity (purified His6-hPGES [6]; 37 ° C., substrate PGG2, highest measured specific activity) of 250 ± 15 µmol/min/mg.

B1: His6-hPGES: full length human PGES fused at its N-terminus to six histidine residues (SEQ ID NO: 4), expressed in E. coli (protein)
chain: MHHHHHHMPAHSLVMSSPALPAFLLCSTLLVIKMYVVAIITGQVRLRKKAFANPEDALRHGGPQYCRSDPDVERCLRAHRNDMETIYPFLFLGFVYSFLGPNPFVAWMHFLVFLVGRVAHTVAYLGKLRAPIRSVTYTLAQLPCASMALQILWEAARHL
With B1 the Original activity remaining ([7]; 816 h) was “about 50%”, the “PGES activity in BL21 (DE3) membranes” value ([7]; in the absence of glycerol and GSH) was “rapidly declines within a period of 24 h” and the “PGES activity after heating” value ([7]; purified enzyme heated at 100° C. for 10 minutes) was “no PGES-activity could be detected”. The “Activity compared to the freshly prepared enzyme” value ([7]; purified enzyme, five days of storage at 4° C.) was “unchanged”, the “Loss of activity on storage” value ([7]; purified enzyme, up to at least two months at −20° C.) was “does not seem to result in any loss of activity” and the “Specific activity of the purified His6-hPGES” value ([8]; 0° C.) was 15 µmol/min/mg. The “Specific activity of the purified His6-hPGES” value ([8]; 37° C.) was 167 µmol/min/mg, the Km ([8]; Human, recombinant) was 163 µM and the “Spec. Act.” value ([8]; Human, recombinant) was 167 µmol/min/mg. The kcat ([8]; Human, recombinant) was 50 s⁻¹.
